Reference: publication PMC9067983, “Identification of highly selective type II kinase inhibitors with chiral peptidomimetic tails” (Journal of Enzyme Inhibition and Medicinal Chemistry, 2022)
Where a SMILES comes first, the peptide text is derived from it. [ ]: non-standard residue; d: D form. The star is where a group is joined. X1 = Cc1ccc(Nc2ncc3c(n2)N(C)C(=O)N(c2cc(C(=O)*)ccc2C)C3)cn1; Aib = CC(C)(N)C(=O)O

Assays:
Experiment in all cases: kinase selectivity profiling
Assay type in all cases: biochemical
Conditions in all cases: 10µM ATP, read-out: % inhibition (relative to DMSO)
AKT2 = target: T1, AKT2 (Homo sapiens, UniProt P31751)
T1 construct: purchased Reaction Biology Corp
Description: (§1) Full panel kinase profiling and kinase IC50 measurement were performed by using Reaction Biology Corp. (San Diego, USA).

NEK2 = target: T2, NEK2 (Homo sapiens, UniProt P51955)
T2 construct: purchased Reaction Biology Corp
Description: as §1

PKCtheta = target: T3, PKCtheta (Homo sapiens, UniProt Q04759)
T3 construct: purchased Reaction Biology Corp
Description: as §1

PKN3/PRK3 = target: T4, PKN3/PRK3 (Homo sapiens, UniProt Q6P5Z2)
T4 construct: purchased Reaction Biology Corp
T4 sequence (Q6P5Z2 whole entry): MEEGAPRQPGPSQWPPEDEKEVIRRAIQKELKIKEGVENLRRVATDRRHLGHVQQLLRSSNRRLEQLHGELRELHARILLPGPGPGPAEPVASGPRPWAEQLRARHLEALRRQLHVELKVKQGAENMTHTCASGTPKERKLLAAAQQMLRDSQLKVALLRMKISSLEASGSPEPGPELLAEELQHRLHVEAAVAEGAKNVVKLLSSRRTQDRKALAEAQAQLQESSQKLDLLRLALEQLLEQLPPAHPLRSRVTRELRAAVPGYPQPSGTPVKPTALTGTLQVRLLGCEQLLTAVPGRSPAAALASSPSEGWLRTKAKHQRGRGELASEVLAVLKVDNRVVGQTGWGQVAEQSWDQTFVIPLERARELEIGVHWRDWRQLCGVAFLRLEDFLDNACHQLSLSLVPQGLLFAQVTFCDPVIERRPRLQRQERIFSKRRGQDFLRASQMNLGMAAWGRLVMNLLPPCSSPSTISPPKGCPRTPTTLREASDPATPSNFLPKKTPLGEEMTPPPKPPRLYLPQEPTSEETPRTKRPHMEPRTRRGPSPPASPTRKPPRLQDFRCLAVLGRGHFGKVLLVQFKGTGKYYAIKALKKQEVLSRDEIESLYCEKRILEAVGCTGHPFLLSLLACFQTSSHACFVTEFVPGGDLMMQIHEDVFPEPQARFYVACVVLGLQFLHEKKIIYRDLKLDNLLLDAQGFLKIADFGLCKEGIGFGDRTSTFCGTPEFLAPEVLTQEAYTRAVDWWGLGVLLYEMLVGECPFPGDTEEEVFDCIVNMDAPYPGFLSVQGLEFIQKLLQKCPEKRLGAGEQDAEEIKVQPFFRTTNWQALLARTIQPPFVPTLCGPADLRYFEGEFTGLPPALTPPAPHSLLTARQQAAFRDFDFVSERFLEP
Description: as §1

EPHB3 = target: T5, EPHB3 (Homo sapiens, UniProt P54753)
T5 construct: purchased Reaction Biology Corp
Description: as §1

ITK = target: T6, ITK (Homo sapiens, UniProt Q08881)
T6 construct: purchased Reaction Biology Corp
Description: as §1

LCK2/ICK = target: T7, LCK2/ICK (Homo sapiens, UniProt Q9UPZ9)
T7 construct: purchased Reaction Biology Corp
Description: as §1

DYRK1B = target: T8, DYRK1B (Homo sapiens, UniProt Q9Y463)
T8 construct: purchased Reaction Biology Corp
Description: as §1

CDK2/cyclin A = target: T9, CDK2/cyclin A (Homo sapiens, UniProt P24941)
T9 construct: purchased Reaction Biology Corp
Description: as §1

CDK2/Cyclin A1 = target: T10, CDK2/Cyclin A1 (Homo sapiens, UniProt P24941)
T10 construct: purchased Reaction Biology Corp
Description: as §1

MST4 = target: T11, MST4 (Homo sapiens, UniProt Q9P289)
T11 construct: purchased Reaction Biology Corp
Description: as §1

PKAcg = target: T12, PKAcg (Homo sapiens, UniProt P22612)
T12 construct: purchased Reaction Biology Corp
Description: as §1

JNK1 = target: T13, JNK1 (Homo sapiens, UniProt P45983)
T13 construct: purchased Reaction Biology Corp
Description: as §1

GRK2 = target: T14, GRK2 (Homo sapiens, UniProt P25098)
T14 construct: purchased Reaction Biology Corp
Description: as §1

PAK2 = target: T15, PAK2 (Homo sapiens, UniProt Q13177)
T15 construct: purchased Reaction Biology Corp
Description: as §1

CAMKK2 = target: T16, CAMKK2 (Homo sapiens, UniProt Q96RR4)
T16 construct: purchased Reaction Biology Corp
Description: as §1

PASK = target: T17, PASK (Homo sapiens, UniProt Q96RG2)
T17 construct: purchased Reaction Biology Corp
Description: as §1

ALK5/TGFBR1 = target: T18, ALK5/TGFBR1 (Homo sapiens, UniProt P36897)
T18 construct: purchased Reaction Biology Corp
T18 sequence (P36897 34-503): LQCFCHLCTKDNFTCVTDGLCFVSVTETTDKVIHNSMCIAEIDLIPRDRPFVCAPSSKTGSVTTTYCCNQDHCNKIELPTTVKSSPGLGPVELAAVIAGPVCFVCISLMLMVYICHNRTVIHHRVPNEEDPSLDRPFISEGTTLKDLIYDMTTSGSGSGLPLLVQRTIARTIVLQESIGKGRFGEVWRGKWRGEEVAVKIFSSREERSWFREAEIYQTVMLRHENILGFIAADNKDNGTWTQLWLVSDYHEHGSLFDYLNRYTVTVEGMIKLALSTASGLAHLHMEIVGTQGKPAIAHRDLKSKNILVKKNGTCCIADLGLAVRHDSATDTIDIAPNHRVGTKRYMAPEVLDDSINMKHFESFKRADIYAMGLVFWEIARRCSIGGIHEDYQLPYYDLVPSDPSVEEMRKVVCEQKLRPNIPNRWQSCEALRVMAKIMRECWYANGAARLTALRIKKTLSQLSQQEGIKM
Description: as §1

MYO3A = target: T19, MYO3A (Homo sapiens, UniProt Q8NEV4)
T19 construct: purchased Reaction Biology Corp
Description: as §1

STK38/NDR1 = target: T20, STK38/NDR1 (Homo sapiens, UniProt Q15208)
T20 construct: purchased Reaction Biology Corp
Description: as §1

GRK3 = target: T21, GRK3 (Homo sapiens, UniProt P35626)
T21 construct: purchased Reaction Biology Corp
Description: as §1

MST2/STK3 = target: T22, MST2/STK3 (Homo sapiens, UniProt Q13188)
T22 construct: purchased Reaction Biology Corp
Description: as §1

IKKb/IKBKB = target: T23, IKKb/IKBKB (Homo sapiens, UniProt O14920)
T23 construct: purchased Reaction Biology Corp
Description: as §1

PKCepsilon = target: T24, PKCepsilon (Homo sapiens, UniProt Q02156)
T24 construct: purchased Reaction Biology Corp
T24 sequence (Q02156 whole entry): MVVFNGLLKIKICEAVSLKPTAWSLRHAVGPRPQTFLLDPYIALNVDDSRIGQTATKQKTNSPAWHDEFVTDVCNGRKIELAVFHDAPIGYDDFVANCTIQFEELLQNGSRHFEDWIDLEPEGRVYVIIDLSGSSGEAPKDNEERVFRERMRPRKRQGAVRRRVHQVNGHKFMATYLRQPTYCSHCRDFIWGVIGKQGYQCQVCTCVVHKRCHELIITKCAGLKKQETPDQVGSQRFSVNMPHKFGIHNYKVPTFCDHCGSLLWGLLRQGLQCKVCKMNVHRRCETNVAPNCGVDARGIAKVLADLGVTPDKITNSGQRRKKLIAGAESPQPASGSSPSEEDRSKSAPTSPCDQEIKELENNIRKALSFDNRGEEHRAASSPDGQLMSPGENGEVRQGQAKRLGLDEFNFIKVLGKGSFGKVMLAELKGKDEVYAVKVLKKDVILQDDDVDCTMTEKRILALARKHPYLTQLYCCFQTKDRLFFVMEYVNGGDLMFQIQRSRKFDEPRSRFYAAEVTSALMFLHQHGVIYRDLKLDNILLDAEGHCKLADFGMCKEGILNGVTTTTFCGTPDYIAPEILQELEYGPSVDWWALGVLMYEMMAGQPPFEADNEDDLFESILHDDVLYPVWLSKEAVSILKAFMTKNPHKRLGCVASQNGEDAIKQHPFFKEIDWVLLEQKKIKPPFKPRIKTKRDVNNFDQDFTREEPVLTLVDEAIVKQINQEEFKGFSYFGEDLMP
Description: as §1

ERK2/MAPK1 = target: T25, ERK2/MAPK1 (Homo sapiens, UniProt P28482)
T25 construct: purchased Reaction Biology Corp
T25 sequence (P28482 whole entry): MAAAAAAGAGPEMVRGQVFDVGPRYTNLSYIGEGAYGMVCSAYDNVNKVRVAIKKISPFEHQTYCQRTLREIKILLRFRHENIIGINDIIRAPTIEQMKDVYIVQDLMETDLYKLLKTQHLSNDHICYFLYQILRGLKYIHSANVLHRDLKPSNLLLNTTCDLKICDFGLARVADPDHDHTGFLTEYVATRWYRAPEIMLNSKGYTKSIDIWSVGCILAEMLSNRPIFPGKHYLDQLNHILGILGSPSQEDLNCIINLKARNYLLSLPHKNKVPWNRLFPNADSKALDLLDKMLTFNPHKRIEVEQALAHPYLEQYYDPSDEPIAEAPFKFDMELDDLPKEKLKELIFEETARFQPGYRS
Description: as §1

IRR/INSRR = target: T26, IRR/INSRR (Homo sapiens, UniProt P14616)
T26 construct: purchased Reaction Biology Corp
Description: as §1

CDK2/cyclin E2 = target: T27, CDK2/cyclin E2 (Homo sapiens, UniProt P24941)
T27 construct: purchased Reaction Biology Corp
Description: as §1

PAK6 = target: T28, PAK6 (Homo sapiens, UniProt Q9NQU5)
T28 construct: purchased Reaction Biology Corp
Description: as §1

FGFR1 = target: T29, FGFR1 (Homo sapiens, UniProt P11362)
T29 construct: purchased Reaction Biology Corp
T29 sequence (P11362 22-822): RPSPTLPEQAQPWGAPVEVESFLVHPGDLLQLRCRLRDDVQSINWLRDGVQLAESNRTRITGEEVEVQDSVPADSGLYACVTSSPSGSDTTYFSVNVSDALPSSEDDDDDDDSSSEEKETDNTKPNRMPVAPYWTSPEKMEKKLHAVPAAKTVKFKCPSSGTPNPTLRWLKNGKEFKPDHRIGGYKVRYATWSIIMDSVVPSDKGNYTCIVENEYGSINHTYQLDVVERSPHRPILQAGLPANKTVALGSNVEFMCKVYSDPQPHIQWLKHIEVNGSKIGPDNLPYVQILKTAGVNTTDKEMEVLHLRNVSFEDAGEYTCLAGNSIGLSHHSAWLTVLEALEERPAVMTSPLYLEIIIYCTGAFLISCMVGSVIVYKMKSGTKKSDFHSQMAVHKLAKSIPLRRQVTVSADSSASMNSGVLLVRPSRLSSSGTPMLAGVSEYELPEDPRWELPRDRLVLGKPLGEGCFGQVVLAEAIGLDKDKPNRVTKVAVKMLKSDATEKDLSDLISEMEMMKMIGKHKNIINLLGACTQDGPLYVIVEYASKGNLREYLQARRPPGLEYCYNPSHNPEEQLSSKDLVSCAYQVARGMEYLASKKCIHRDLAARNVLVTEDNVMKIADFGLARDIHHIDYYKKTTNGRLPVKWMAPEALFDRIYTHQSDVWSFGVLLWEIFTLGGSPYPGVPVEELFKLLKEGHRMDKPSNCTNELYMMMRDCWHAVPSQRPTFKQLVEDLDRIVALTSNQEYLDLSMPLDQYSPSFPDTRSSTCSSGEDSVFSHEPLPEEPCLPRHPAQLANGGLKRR
Description: as §1

DLK/MAP3K12 = target: T30, DLK/MAP3K12 (Homo sapiens, UniProt Q12852)
T30 construct: purchased Reaction Biology Corp
Description: as §1

ULK3 = target: T31, ULK3 (Homo sapiens, UniProt Q6PHR2)
T31 construct: purchased Reaction Biology Corp
Description: as §1

MEK1 = target: T32, MEK1 (Homo sapiens, UniProt Q02750)
T32 construct: purchased Reaction Biology Corp
T32 sequence (Q02750 whole entry): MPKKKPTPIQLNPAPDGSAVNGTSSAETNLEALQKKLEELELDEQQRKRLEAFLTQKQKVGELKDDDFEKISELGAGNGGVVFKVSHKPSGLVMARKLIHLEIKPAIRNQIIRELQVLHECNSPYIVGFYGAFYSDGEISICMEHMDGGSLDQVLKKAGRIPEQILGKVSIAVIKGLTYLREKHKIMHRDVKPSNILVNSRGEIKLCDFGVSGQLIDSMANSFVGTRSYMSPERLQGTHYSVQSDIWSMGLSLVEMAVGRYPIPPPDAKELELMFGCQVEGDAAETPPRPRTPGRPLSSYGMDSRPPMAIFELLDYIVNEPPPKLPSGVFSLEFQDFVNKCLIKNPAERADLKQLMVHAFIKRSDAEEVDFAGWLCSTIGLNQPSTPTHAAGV
Description: as §1

CDK17/cyclin Y (PCTK2) = target: T33, CDK17/cyclin Y (PCTK2) (Homo sapiens, UniProt Q00537)
T33 construct: purchased Reaction Biology Corp
Description: as §1

FMS = target: T34, FMS (Homo sapiens, UniProt P07333)
T34 construct: purchased Reaction Biology Corp
Description: as §1

MARK4 = target: T35, MARK4 (Homo sapiens, UniProt Q96L34)
T35 construct: purchased Reaction Biology Corp
Description: as §1

LIMK2 = target: T36, LIMK2 (Homo sapiens, UniProt P53671)
T36 construct: purchased Reaction Biology Corp
Description: as §1

GRK7 = target: T37, GRK7 (Homo sapiens, UniProt Q8WTQ7)
T37 construct: purchased Reaction Biology Corp
Description: as §1

NEK5 = target: T38, NEK5 (Homo sapiens, UniProt Q6P3R8)
T38 construct: purchased Reaction Biology Corp
T38 sequence (Q6P3R8 whole entry): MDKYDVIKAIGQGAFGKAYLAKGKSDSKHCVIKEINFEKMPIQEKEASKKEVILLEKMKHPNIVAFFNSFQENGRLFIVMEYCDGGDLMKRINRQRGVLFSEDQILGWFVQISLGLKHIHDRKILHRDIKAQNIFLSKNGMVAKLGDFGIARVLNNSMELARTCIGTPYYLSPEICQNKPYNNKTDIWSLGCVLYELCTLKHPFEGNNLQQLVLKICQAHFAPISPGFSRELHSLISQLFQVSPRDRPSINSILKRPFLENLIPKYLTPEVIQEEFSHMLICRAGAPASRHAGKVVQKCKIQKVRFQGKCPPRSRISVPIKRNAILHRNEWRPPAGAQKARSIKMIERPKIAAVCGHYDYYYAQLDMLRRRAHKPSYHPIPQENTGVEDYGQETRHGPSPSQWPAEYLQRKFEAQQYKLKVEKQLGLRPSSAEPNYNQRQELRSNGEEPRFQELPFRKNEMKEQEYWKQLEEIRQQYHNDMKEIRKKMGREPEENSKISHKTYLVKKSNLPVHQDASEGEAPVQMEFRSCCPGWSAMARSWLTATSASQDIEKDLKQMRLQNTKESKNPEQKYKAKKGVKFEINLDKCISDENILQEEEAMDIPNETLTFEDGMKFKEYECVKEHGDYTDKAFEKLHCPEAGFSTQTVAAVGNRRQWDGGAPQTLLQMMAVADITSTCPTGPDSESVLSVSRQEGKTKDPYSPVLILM
Description: as §1

PIM2 = target: T39, PIM2 (Homo sapiens, UniProt Q9P1W9)
T39 construct: purchased Reaction Biology Corp
Description: as §1

CDK7/cyclin H = target: T40, CDK7/cyclin H (Homo sapiens, UniProt P50613)
T40 construct: purchased Reaction Biology Corp
Description: as §1

PAK3 = target: T41, PAK3 (Homo sapiens, UniProt O75914)
T41 construct: purchased Reaction Biology Corp
Description: as §1

LYN B = target: T42, LYN B (Homo sapiens, UniProt P07948)
T42 construct: purchased Reaction Biology Corp
Description: as §1

YES/YES1 = target: T43, YES/YES1 (Homo sapiens, UniProt P07947)
T43 construct: purchased Reaction Biology Corp
T43 sequence (P07947 whole entry): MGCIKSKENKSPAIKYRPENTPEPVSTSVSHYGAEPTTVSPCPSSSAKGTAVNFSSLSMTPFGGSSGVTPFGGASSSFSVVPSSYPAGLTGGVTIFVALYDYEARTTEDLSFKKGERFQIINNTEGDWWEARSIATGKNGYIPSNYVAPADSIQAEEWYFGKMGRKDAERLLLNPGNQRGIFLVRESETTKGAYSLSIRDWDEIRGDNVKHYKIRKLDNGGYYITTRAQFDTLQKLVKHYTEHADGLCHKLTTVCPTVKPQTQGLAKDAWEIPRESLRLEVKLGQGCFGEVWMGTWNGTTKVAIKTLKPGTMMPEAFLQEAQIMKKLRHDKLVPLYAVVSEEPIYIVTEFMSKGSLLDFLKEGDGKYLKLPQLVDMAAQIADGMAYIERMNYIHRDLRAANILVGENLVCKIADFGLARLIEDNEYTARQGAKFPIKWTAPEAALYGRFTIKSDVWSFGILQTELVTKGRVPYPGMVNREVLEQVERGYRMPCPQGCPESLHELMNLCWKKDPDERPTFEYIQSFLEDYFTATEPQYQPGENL
Description: as §1

In the case of Cc1ccc(Nc2ncc3c(n2)N(C)C(=O)N(c2cc(C(=O)N[C@H](C(=O)N4CCC[C@H]4C(=O)NC(C)(C)C(=O)N[C@@H](CC(C)C)C(=O)N(C)C)C(C)C)ccc2C)C3)cn1 [7a, (S)-N-(1-(((S)-1-(dimethylamino)-4-methyl-1-oxopentan-2-yl)amino)-2-methyl-1-oxopropan-2-yl)-1-((4-methyl-3-(1-methyl-7-((6-methylpyridin-3-yl)amino)-2-oxo-1,4-dihydropyrimido[4,5-d]pyrimidin-3(2H)-yl)benzoyl)-L-valyl)pyrrolidine-2-carboxamide] (X1-VP[Aib]L-NMe2), the inhibition at 1 µM (AKT2) is reported as 0%, the inhibition at 1 µM (NEK2) is reported as 0% and the inhibition at 1 µM (PKCtheta) is reported as 0%. For the same compound, the inhibition at 1 µM (PKN3/PRK3) was 8%, the inhibition at 1 µM (EPHB3) was 8% and the inhibition at 1 µM (ITK) was 7%. For the same compound, the inhibition at 1 µM (LCK2/ICK) was 0%, the inhibition at 1 µM (DYRK1B) was 11% and the inhibition at 1 µM (CDK2/cyclin A) was 0%. It also gave an inhibition at 1 µM (CDK2/Cyclin A1) of 1%, an inhibition at 1 µM (MST4) of 0% and an inhibition at 1 µM (PKAcg) of 0%. The inhibition at 1 µM (JNK1) was 0%, the inhibition at 1 µM (GRK2) was 0% and the inhibition at 1 µM (PAK2) was 0%. It also gave an inhibition at 1 µM (CAMKK2) of 10%, an inhibition at 1 µM (PASK) of 0% and an inhibition at 1 µM (ALK5/TGFBR1) of 0%. For the same compound, the inhibition at 1 µM (MYO3A) was 0%, the inhibition at 1 µM (STK38/NDR1) was 0% and the inhibition at 1 µM (GRK3) was 0%. For the same compound, the inhibition at 1 µM (MST2/STK3) was 7%, the inhibition at 1 µM (IKKb/IKBKB) was 0% and the inhibition at 1 µM (PKCepsilon) was 1%. For the same compound, the inhibition at 1 µM (ERK2/MAPK1) was 0%, the inhibition at 1 µM (IRR/INSRR) was 5% and the inhibition at 1 µM (CDK2/cyclin E2) was 0%. It also gave an inhibition at 1 µM (PAK6) of 0%, an inhibition at 1 µM (FGFR1) of 37% and an inhibition at 1 µM (DLK/MAP3K12) of 0%. It also gave an inhibition at 1 µM (ULK3) of 0%, an inhibition at 1 µM (MEK1) of 8% and an inhibition at 1 µM (CDK17/cyclin Y (PCTK2)) of 7%. For the same compound, the inhibition at 1 µM (FMS) was 60%, the inhibition at 1 µM (MARK4) was 0% and the inhibition at 1 µM (LIMK2) was 12%. For the same compound, the inhibition at 1 µM (GRK7) was 0%, the inhibition at 1 µM (NEK5) was 0% and the inhibition at 1 µM (PIM2) was 0%. For the same compound, the inhibition at 1 µM (CDK7/cyclin H) was 3%, the inhibition at 1 µM (PAK3) was 0% and the inhibition at 1 µM (LYN B) was 34%. It also gave an inhibition at 1 µM (YES/YES1) of 62%.
